Experimental data: patent publication US20170152226A1, “FUNCTIONALISED AND SUBSTITUTED INDOLES AS ANTI-CANCER AGENTS” (Novogen Ltd., priority 2014, published 2017)
Where two headings read alike, the source gives them in different places.

What was measured:
Format in all cases: cell-based
[1] = system: DU145; experiment: Anti-proliferative activity, cell-titre luminescent viability assay; details: Homo sapiens, read-out: IC50 Prostate DU145
Summary of the method: (§1)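 Cells were seeded at pre-determined densities, cultured 24 hours at 37° C/5% CO2, then exposed 72 hours to compound at 0.03, 0.3, 3 and 30 μM or at 0.1, 0.3, 1, 3, 10 and 30 μM. Viability was read by cell-titre luminescence after 30 min, normalized to untreated control, and IC50 or EC50 derived.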

[2] = system: A549; experiment: as above; details: Homo sapiens, read-out: IC50 Lung (NSLC) A549
Summary of the method: as §1

[3] = system: PC3; experiment: as above; details: Homo sapiens, read-out: IC50 Prostate PC3
Summary of the method: as §1

[4] = system: CaCo2; experiment: as above; details: Homo sapiens, read-out: IC50 Colorectal CaCo2
Summary of the method: as §1

[5] = system: MDA-MB-231; experiment: as above; details: Homo sapiens, read-out: IC50 Breast MDA-MB-231
Summary of the method: as §1

[6] = system: SK-Mel-28; experiment: as above; details: Homo sapiens, SK-MEL-28, 72 hours, read-out: IC50 Melanoma SK-Mel-28
Summary of the method: as §1

[7] = system: SK-N-SH; experiment: as above; details: Homo sapiens, SK-N-SH, read-out: IC50 Neuroblastoma SK-N-SH
Summary of the method: as §1

[8] = system: Tpm3.1-containing actin filaments in SK-N-SH neuroblastoma cells; experiment: Microfilament disruption assay, γ9d staining; details: 0-40 μM, 24 hours post treatment
Experimental: (§2) FIG. 2: Imaging and quantitation of actin filaments in SK-N-SH neuroblastoma cells treated with compound (A) 3504, (B) 3507 and (C) 3516. Cells were stained with γ9d (sheep polycolonal, 1:100) followed by 488-conjugated secondary (1:1000) and DAPI to visualize the Tpm3.1 containing filament bundles and the nucleus, respectively. Shown in the top panel is a representative grey scale immunofluorescent image from control (vehicle alone), 5 μM and 10 μM treated cells. […] The coloured lines indicate the detected actin filaments. Also shown is the quantitation of cell number, filament number/cell and filament number/cell area (μM^2). […]
(§3) The ability of compounds 3504, 3507 and 3516 to disrupt the total actin cytoskeleton (FIG. 1) and to specifically target Tpm3.1-containing actin filaments (FIG. 2) was assessed in vitro using the microfilament disruption assay.
(§4) Briefly, SK-N-SH neuroblastoma cells were seeded at 1800 cells/well in a 384 Perkin Elmer High Content Imaging “View” plate and left to plate down 24 hours prior to treatment. […] Images were then exported and changes in the organization and numbers of actin filaments within the cell were quantitated using a linear feature detection algorithm developed by the CSIRO (Vindin et al., 2014). […] It is these “ridge lines” that correspond to actin filament bundles and allow us to quantitate the number of filaments per cell.

[9] = system: total actin cytoskeleton in SK-N-SH neuroblastoma cells; experiment: Microfilament disruption assay, phalloidin staining; details: 0-40 μM, 24 hours post treatment
Experimental: as §2, with “1:” for “2:”, “488-Atto-Phallodin” for “γ9d (sheep polycolonal, 1:100) followed by 488-conjugated secondary (1:1000)”, “actin” for “Tpm3.1 containing”
as §3, §4

[10] = system: IFN-γ; experiment: Inhibition of cytokine release from PBMCs (HTRF); details: PBMC, human PBMCs, PMA and ionomycin stimulated
Experimental: (§5) The ability of compounds 3507, 3520, 3534 and 3538 to inhibit the release of cytokines TNF-α, IFN-γ, IL-6, IL-21, IL-17A and IL-23 was evaluated in vitro (Tables 4 and 5). Briefly, human peripheral blood mononuclear cells (PBMCs) were isolated from human peripheral blood by Histopaque density gradient centrifugation. The freshly isolated PBMCs were seeded at 50,000 cells/well in a 96-well half area plate. PBMCs were dosed with the test compounds (at 10 μM, 1 μM and 0.1 μM) and then incubated at 37° C. and 5% CO2 for 2 hours. To stimulate release of the cytokines IFN-γ, IL-21, IL-17A and IL-23, the PBMCs were treated with 50 ng/mL of phorbol 12-myristate 13-acetate (PMA) and 1 μg/mL of ionomycin and to stimulate the release of TNF-α and IL-6, PBMCs were treated with 100 ng/mL of lipopolysaccharide (LPS) from gram-negative bacteria. The PBMCs were then incubated at 37° C. and 5% CO2 for a further 6 hours and the cell supernatant was collected and a Homogenous Time Resolved Fluorescence (HTRF) assay was carried out following the manufacturer's instructions. Cytokine release from the PBMCs was captured using a Perkin Elmer ENVISION 2104 microplate reader set at 615 nm and 665 nm respectively.

[11] = system: IL-6; experiment: Inhibition of cytokine release from PBMCs (HTRF); details: PBMC, human PBMCs, LPS stimulated
Experimental: as §5

[12] = system: IL-23; experiment: Inhibition of cytokine release from PBMCs (HTRF); details: PBMC, human PBMCs, PMA and ionomycin stimulated
Experimental: as §5

[13] = system: IL-17A; experiment: Inhibition of cytokine release from PBMCs (HTRF); details: PBMC, human PBMCs, PMA and ionomycin stimulated
Experimental: as §5

[14] = system: TNF-α; experiment: Inhibition of cytokine release from PBMCs (HTRF); details: PBMC, human PBMCs, LPS stimulated
Experimental: as §5

[15] = system: IL-21; experiment: Inhibition of cytokine release from PBMCs (HTRF); details: PBMC, human PBMCs, PMA and ionomycin stimulated
Experimental: as §5

[16] = DU-145, 72 h, 0.1, 0.3, 1, 3, 10 and 30 μM, nonlinear regression sigmoidal dose-response (EC50)
[17] = A549, 72 h, 0.1, 0.3, 1, 3, 10 and 30 μM, nonlinear regression sigmoidal dose-response (EC50)
[18] = PC-3, 72 h, 0.1, 0.3, 1, 3, 10 and 30 μM, nonlinear regression sigmoidal dose-response (EC50)
[19] = Caco-2, 72 h, 0.1, 0.3, 1, 3, 10 and 30 μM, nonlinear regression sigmoidal dose-response (EC50)
[20] = MDA-MB-231, 72 h, 0.1, 0.3, 1, 3, 10 and 30 μM, nonlinear regression sigmoidal dose-response (EC50)
[21] = 0.1, 0.3, 1, 3, 10 and 30 μM, nonlinear regression sigmoidal dose-response (EC50)
[22] = 72 h, 0.1, 0.3, 1, 3, 10 and 30 μM, nonlinear regression sigmoidal dose-response (EC50)
[23] = DU-145, 72 h, 0.03, 0.3, 3 and 30 μM, linear regression of semi-log plots
[24] = A549, 72 h, 0.03, 0.3, 3 and 30 μM, linear regression of semi-log plots
[25] = PC-3, 72 h, 0.03, 0.3, 3 and 30 μM, linear regression of semi-log plots
[26] = Caco-2, 72 h, 0.03, 0.3, 3 and 30 μM, linear regression of semi-log plots
[27] = MDA-MB-231, 72 h, 0.03, 0.3, 3 and 30 μM, linear regression of semi-log plots
[28] = 0.03, 0.3, 3 and 30 μM, linear regression of semi-log plots
[29] = 72 h, 0.03, 0.3, 3 and 30 μM, linear regression of semi-log plots

IC50 [1, 16] [nM] | IC50 [2, 17] [nM] | SMILES | inhibition at 0.1 µM [10] [%] | inhibition at 1 µM [10] [%] | inhibition at 10 µM [10] [%] | inhibition at 0.1 µM [11] [%] | inhibition at 1 µM [11] [%] | inhibition at 10 µM [11] [%] | inhibition at 0.1 µM [12] [%] | inhibition at 1 µM [12] [%] | inhibition at 10 µM [12] [%] | inhibition at 0.1 µM [13] [%] | inhibition at 1 µM [13] [%] | inhibition at 10 µM [13] [%] | inhibition at 0.1 µM [14] [%] | inhibition at 1 µM [14] [%] | inhibition at 10 µM [14] [%] | inhibition at 0.1 µM [15] [%] | inhibition at 1 µM [15] [%] | inhibition at 10 µM [15] [%] | other results
1400 | 1600 | Cc1c(C)n(CCCN2CCN(C)CC2)c2ccc(Cc3cccc(C(=O)N4CCN(CCc5cccc(F)c5)CC4)c3)cc12 [Compound 3504, (3-((2,3-dimethyl-1-(3-(4-methylpiperazin-1-yl)propyl)-1H-indol-5-yl)methyl)phenyl)(4-(3-fluorophenethyl)piperazin-1-yl)methanone] | – | – | – | – | – | – | – | – | – | – | – | – | – | – | – | – | – | – | IC50 [3, 18]: 2000 nM; IC50 [4, 19]: 1800 nM; IC50 [5, 20]: 1500 nM; IC50 [6, 21]: 1100 nM; IC50 [7, 22]: 1500 nM; disruption of Tpm3.1-containing actin filaments [8]: in a dose-dependent manner; disruption of the total actin cytoskeleton [9]: in a dose-dependent manner
– | – | COc1ccc(CCN2CCN(C(=O)c3ccc(Cc4ccc5c(c4)c(C)c(C)n5CCCN4CCN(C)CC4)cc3)CC2)cc1 [Compound 3520, (4-((2,3-dimethyl-1-(3-(4-methylpiperazin-1-yl)propyl)-1H-indol-5-yl)methyl)phenyl)(4-(4-methoxyphenethyl)piperazin-1-yl)methanone] | 1 | 0 | 4 | -10 | -9 | 3 | -8 | -1 | 12 | -11 | -7 | 1 | -8 | -10 | -14 | -8 | -13 | -12 | IC50 [1, 23]: 2700 nM; IC50 [2, 24]: 2400 nM; IC50 [3, 25]: 2300 nM; IC50 [4, 26]: 3500 nM; IC50 [5, 27]: 2800 nM; IC50 [6, 28]: 2500 nM; IC50 [7, 29]: 2300 nM
– | – | Cc1c(C)n(CCCN2CCN(C)CC2)c2ccc(Nc3ccc(C(=O)N4CCN(CCc5cccc(F)c5)CC4)cc3)cc12 [Compound 3534, (4-((2,3-dimethyl-1-(3-(4-methylpiperazin-1-yl)propyl)-1H-indol-5-yl)amino)phenyl)(4-(3-fluorophenethyl)piperazin-1-yl)methanone] | 23 | 39 | 85 | 13 | 21 | 48 | -5 | -1 | 20 | 1 | 1 | 12 | 2 | 5 | -12 | 0 | -8 | 11 | IC50 [1, 23]: 1400 nM; IC50 [2, 24]: 1500 nM; IC50 [3, 25]: 2800 nM; IC50 [4, 26]: 3200 nM; IC50 [5, 27]: 1600 nM; IC50 [6, 28]: 1200 nM; IC50 [7, 29]: 1400 nM
4200 | 4300 | COc1ccc2cc(CCN3CCN(C(=O)c4cccc(Cc5ccc6c(c5)c(C)c(C)n6CCCN5CCN(C)CC5)c4)CC3)ccc2c1 [Compound 3538, (3-((2,3-dimethyl-1-(3-(4-methylpiperazin-1-yl)propyl)-1H-indol-5-yl)methyl)phenyl)(4-(2-(6-methoxynaphthalen-2-yl)ethyl)piperazin-1-yl)methanone] | 24 | 58 | 86 | -13 | -13 | -10 | -19 | -20 | 30 | 21 | 42 | 86 | -10 | -4 | -7 | 1 | 8 | 11 | IC50 [3, 18]: 3900 nM; IC50 [4, 19]: 5700 nM; IC50 [5, 20]: 3600 nM; IC50 [6, 21]: 3300 nM; IC50 [7, 22]: 4800 nM
